In patent publication US10925865B2, “Charged ion channel blockers and methods for use” (Nocion Therapeutics, Inc., priority 2019, dated 2021):

Columns and labels:
[1] = molecular target: T1, NaV1.7 (Homo sapiens, UniProt Q15858); experiment: Nav1.7 whole cell patch clamp, internal block (intracellular inhibition); assay type: cell-based; conditions: test concentration 10 μM, compound in internal solution, 5 Hz stimulation
T1 construct: expressed in transfected cells; host or cells: Tetracycline-inducible cell line kept under hygromycin and blasticidin selection
Procedure: (§1) The compounds were synthesized according to the described method and tested for the ability to inhibit voltage-gated sodium channels.
(§2) NaV1.7 was expressed upon induction with tetracycline. Cells were cultured in DMEM containing 10% dialyzed Fetal Bovine Serum (VWR, Radnor, Pa.), 1% Glutamax (VWR, Radnor, Pa.), 1% Penicillin-Streptomycin (VWR, Radnor, Pa.), 100 mg/L Hygromycin (Thermo Fisher Scientific, Waltham, Mass. and 5 mg/L Blasticidin (Alfa Aesar, Haverhill, Mass.). Cells were grown and maintained at 37° C. in a humidified environment containing 10% CO2 in air. Cells were detached from the culture flask for passage and harvested using 0.05% Trypsin-EDTA (Thermo Fisher Scientific, Waltham, Mass.). To induce NaV1.7, cells were induced with tetracycline ([…], IBI Scientific, Peosta, Iowa) the day before recording and plated onto 24-well plates. Cells were washed with DPBS (VWR, Radnor, Pa.), trypsinized and then triturated five times in 10 mL of growth media to break apart cell aggregates. For one 24-well plate, 2 mL of cell suspension was mixed with 23 mL of fresh growth media and […] tetracycline added. 1 ml of mixed media with cells was then added to each well of a 24-well plate, with a 12 mm coverslip already placed in the bottom of the well. Cells were then incubated in 37° C. and 10% CO2 overnight.
(§3) The intracellular solution contained the following (in mM) CsCl 135, NaCl 10, EGTA 10, HEPES 10, MgCl2 2, adjusted to pH 7.2 with CsOH. The external solution was a normal Ringer solution containing (in mM) NaCl 155, HEPES 10, glucose 10, KCl 3.5, CaCl2 1.5, MgCl2 1 adjusted to pH 7.4 with NaOH. CsCl is from Alfa Aesar, Haverhill, Mass. All other chemicals are from Sigma-Aldrich, St. Louis, Mo. In order to test the degree of internal block by test compounds the compounds were dissolved in internal solution at the indicated test concentration. […] In order to test the degree of external block by test compounds the compounds were dissolved in external solution at the indicated test concentration.
(§4) 18-24 hours after cells were induced with tetracycline, coverslips were placed into a chamber filled with Normal Ringer solution at room temperature and the chamber placed on a microscope. Pipettes were pulled from borosilicate glass on a P97 puller (Sutter Instrument, Novato, Calif.) and polished with a MF-830 Microforge (Narishige International USA, Inc., Amityville, N.Y.) to have a resistance of 1.5-2.5 MQ when filled with CsCl internal solution at room temperature. Healthy cells (those that are round and translucent with no visible blemishes) were chosen for seal formation. A seal was formed between the pipette and the cell, and a brief pulse of suction was used to “break in” and establish the whole-cell configuration. The membrane potential was held at −100 mV before the voltage protocol began. Only cells with series resistance between 1.5-5 MQ were retained for analysis. The voltage protocol was as follows: Cells were held at −100 mV for 12 ms followed by a hyperpolarizing step to −105 mV for 12 ms to monitor the leak. Cells were then stepped back to −100 mV for 40 ms. Cells were then depolarized to −20 mV for 10 ms and then returned to −100 mV for 26 ms (The FIGURE).
(§5) Once the recording was started, the voltage protocol was run at 30 second intervals for 5 minutes to get a stable baseline. […] Currents were recorded using PatchMaster software with Heka EPC10 (HEKA Electronics, Lambrecht, Germany). […]

[2] = molecular target: T1, NaV1.7; experiment: Nav1.7 whole cell patch clamp, external block (extracellular application); assay type: cell-based; conditions: test concentration 30 μM, compound in external solution for 5 minutes, 5 Hz stimulation
Procedure: as §1, §2, §3, §4, §5

[3] = test system: artificial lipid membrane; experiment: PAMPA membrane permeability assay; assay type: in vitro ADME; conditions: pH 7.4 buffer, GIT lipid, 4 hours incubation
Procedure: The PAMPA assay (pION, Inc., Woburn Mass.) was used to determine the ability of compounds of the invention to cross an artificial lipid membrane by passive diffusion. Test compounds were dissolved in DMSO (10 mM) and diluted 200-fold in buffer (pION Inc., pH 7.4) to provide 50 uM stock solutions. Buffer (150 μL) was added to a UV blank plate and stock solutions (150 μL) were transferred to a UV reference plate. The blank and reference spectrum were read using a spectrophotometer. Stock solutions (200 μL) were added to the donor plate of the PAMPA sandwich plate and an accept plate painted with GIT lipid (pION Inc., 5 μL) was placed on top. Buffer (200 μL) was added to the acceptor plate and the PAMPA sandwich plate was incubated for 4 hours. Aliquots (150 μL) from the acceptor plate were added to a UV plate and read as acceptor spectrum. Aliquots (150 μL) of the donor solutions were added to a UV analysis plate and read as donor spectrum. The permeability coefficient of test compounds was calculated using PAMPA Explorer™ software (version 3.5.0.4) based on the AUC of the reference plate, the donor plate, and the acceptor plate.

T1 sequence (Q15858 whole entry): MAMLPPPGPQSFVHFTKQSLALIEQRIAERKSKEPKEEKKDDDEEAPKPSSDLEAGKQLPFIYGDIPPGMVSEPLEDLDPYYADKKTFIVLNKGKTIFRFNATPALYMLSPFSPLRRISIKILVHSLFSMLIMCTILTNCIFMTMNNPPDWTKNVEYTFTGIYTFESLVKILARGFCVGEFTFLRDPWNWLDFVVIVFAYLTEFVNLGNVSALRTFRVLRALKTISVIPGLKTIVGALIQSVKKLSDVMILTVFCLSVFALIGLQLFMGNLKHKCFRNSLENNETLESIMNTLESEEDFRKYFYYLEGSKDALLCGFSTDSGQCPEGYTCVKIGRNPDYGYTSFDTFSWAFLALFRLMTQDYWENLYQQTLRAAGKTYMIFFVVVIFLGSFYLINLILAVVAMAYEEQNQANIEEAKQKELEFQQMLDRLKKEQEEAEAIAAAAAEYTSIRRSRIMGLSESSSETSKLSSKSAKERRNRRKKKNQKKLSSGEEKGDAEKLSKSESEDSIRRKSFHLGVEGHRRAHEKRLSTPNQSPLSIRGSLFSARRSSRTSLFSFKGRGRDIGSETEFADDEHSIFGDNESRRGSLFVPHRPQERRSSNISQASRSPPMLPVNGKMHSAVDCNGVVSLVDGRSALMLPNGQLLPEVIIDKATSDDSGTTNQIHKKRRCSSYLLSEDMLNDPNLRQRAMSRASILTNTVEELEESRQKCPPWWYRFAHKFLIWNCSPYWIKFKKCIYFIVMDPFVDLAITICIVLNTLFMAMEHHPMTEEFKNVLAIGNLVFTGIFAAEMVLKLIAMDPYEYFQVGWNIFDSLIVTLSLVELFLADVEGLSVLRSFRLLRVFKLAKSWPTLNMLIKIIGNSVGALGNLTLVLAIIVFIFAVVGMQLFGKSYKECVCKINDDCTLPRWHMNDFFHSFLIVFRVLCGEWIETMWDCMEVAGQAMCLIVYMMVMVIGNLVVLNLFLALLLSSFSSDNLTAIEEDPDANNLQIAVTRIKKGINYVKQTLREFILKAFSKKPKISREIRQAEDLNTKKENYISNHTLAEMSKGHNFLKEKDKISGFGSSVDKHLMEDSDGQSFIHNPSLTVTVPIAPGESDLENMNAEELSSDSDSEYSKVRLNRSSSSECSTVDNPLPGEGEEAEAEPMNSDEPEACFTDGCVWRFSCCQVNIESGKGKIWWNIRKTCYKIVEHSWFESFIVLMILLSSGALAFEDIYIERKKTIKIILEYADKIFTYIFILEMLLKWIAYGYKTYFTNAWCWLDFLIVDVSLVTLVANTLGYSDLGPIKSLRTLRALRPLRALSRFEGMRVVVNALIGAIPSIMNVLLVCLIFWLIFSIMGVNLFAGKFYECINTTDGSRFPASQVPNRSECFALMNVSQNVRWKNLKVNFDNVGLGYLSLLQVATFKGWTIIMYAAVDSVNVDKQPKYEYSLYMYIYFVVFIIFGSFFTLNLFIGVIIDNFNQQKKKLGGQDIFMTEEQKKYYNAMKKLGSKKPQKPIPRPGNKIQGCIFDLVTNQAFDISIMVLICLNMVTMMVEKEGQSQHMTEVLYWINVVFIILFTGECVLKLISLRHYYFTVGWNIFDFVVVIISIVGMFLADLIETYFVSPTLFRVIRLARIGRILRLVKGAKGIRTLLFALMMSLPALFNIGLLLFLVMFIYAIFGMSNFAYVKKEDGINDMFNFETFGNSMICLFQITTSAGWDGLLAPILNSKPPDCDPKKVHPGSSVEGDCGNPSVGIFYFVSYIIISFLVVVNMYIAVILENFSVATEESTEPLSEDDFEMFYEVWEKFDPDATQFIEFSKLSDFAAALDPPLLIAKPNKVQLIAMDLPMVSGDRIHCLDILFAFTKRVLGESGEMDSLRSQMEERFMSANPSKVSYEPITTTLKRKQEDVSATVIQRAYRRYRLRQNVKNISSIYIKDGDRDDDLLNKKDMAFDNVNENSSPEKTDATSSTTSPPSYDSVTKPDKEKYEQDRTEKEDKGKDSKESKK

SMILES | inhibition at 10 µM [1] [%] | inhibition at 30 µM [2] [%] | Papp at 4 h, 50 uM [3] [×10⁻⁶ cm/s]
CCOC(=O)c1ccc[n+](CC(=O)Nc2c(C)cccc2C)c1 [5′A, 1-(2-((2,6-dimethylphenyl)amino)-2-oxoethyl)-3-(ethoxycarbonyl)pyridin-1-ium bromide] | > 75 | < 45 | –
Cc1cccc(C)c1NC(=O)C[n+]1ccccc1-c1ccccc1.[Br-] [2′A, 1-(2-((2,6-dimethylphenyl)amino)-2-oxoethyl)-2-phenylpyridin-1-ium bromide] | > 75 | < 45 | < 1
CCc1ccc[n+](CC(=O)Nc2c(C)cccc2C)c1.[Br-] [3′A, 1-(2-((2,6-dimethylphenyl)amino)-2-oxoethyl)-3-ethylpyridin-1-ium bromide] | > 75 | < 45 | < 1
Cc1cccc(C)c1NC(=O)C[n+]1cccc(-c2ccccc2)c1.[Br-] [1′A, 1-(2-((2,6-dimethylphenyl)amino)-2-oxoethyl)-3-phenylpyridin-1-ium bromide] | > 75 | < 45 | < 1
CCc1cccc[n+]1CC(=O)Nc1c(C)cccc1C.[Br-] [4′A, 1-(2-((2,6-dimethylphenyl)amino)-2-oxoethyl)-2-ethylpyridin-1-ium bromide] | > 75 | < 45 | < 1
